Results as given in ChEMBL document CHEMBL1177809, “Motualevic acids and analogs: synthesis and antimicrobial structure-activity relationships” (2010).
In brackets after ≈: the same amount, converted by molar mass. Activity calls are given as the source filed them. The rule behind the calls is not given here.

How the values were obtained:
[1] = system: Enterococcus faecium; assay: Antibacterial activity against Enterococcus faecium by microbroth dilution assay; assay type: functional
[2] = system: Enterococcus; assay: Antibacterial activity against vancomycin-resistant Enterococcus at 5 ug/disk by agar disk diffusion assay; assay type: functional; conditions: read-out: IZ
[3] = system: Staphylococcus aureus; assay: Antibacterial activity against Staphylococcus aureus by microbroth dilution assay; assay type: functional
[4] = system: Enterococcus faecium; assay: Antibacterial activity against Enterococcus faecium at 25 ug/disk by agar disk diffusion assay; assay type: functional; conditions: read-out: IZ
[5] = system: Staphylococcus aureus; assay: Antibacterial activity against Staphylococcus aureus at 25 ug/disk by agar disk diffusion assay; assay type: functional; conditions: read-out: IZ
[6] = system: Staphylococcus aureus; assay: Antibacterial activity against methicillin-resistant Staphylococcus aureus at 10 ug/disk by agar disk diffusion assay; assay type: functional; conditions: read-out: IZ
[7] = system: Enterococcus; assay: Antibacterial activity against vancomycin-resistant Enterococcus by microbroth dilution assay; assay type: functional
[8] = system: Staphylococcus aureus; assay: Antibacterial activity against methicillin-resistant Staphylococcus aureus by microbroth dilution assay; assay type: functional
[9] = system: Staphylococcus aureus; assay: Antibacterial activity against methicillin-resistant Staphylococcus aureus at 25 ug/disk by agar disk diffusion assay; assay type: functional; conditions: read-out: IZ
[10] = system: Staphylococcus aureus; assay: Antibacterial activity against methicillin-resistant Staphylococcus aureus at 50 ug/disk by agar disk diffusion assay; assay type: functional; conditions: for zone of inhibition at 50 µg/disc: read-out: IZ
[11] = system: Staphylococcus aureus; assay: Antibacterial activity against Staphylococcus aureus at 50 ug/disk by agar disk diffusion assay; assay type: functional; conditions: for zone of inhibition at 50 µg/disc: read-out: IZ
[12] = system: Enterococcus; assay: Antibacterial activity against vancomycin-resistant Enterococcus at 25 ug/disk by agar disk diffusion assay; assay type: functional; conditions: read-out: IZ
[13] = system: Enterococcus; assay: Antibacterial activity against vancomycin-resistant Enterococcus at 10 ug/disk by agar disk diffusion assay; assay type: functional; conditions: read-out: IZ
[14] = system: Enterococcus faecium; assay: Antibacterial activity against Enterococcus faecium at 10 ug/disk by agar disk diffusion assay; assay type: functional; conditions: read-out: IZ
[15] = system: Enterococcus faecium; assay: Antibacterial activity against Enterococcus faecium at 5 ug/disk by agar disk diffusion assay; assay type: functional; conditions: read-out: IZ
[16] = system: Enterococcus; assay: Antibacterial activity against vancomycin-resistant Enterococcus at 50 ug/disk by agar disk diffusion assay; assay type: functional, organism-based
[17] = system: Enterococcus faecium; assay: Antibacterial activity against Enterococcus faecium at 50 ug/disk by agar disk diffusion assay; assay type: functional, organism-based
[18] = system: Staphylococcus aureus; assay: Antibacterial activity against Staphylococcus aureus at 10 ug/disk by agar disk diffusion assay; assay type: functional; conditions: read-out: IZ

Structure (SMILES)	MIC [1]	MIC [3]	zone of inhibition at 25 µg/disc [4] [mm]	zone of inhibition at 25 µg/disc [5] [mm]	MIC [7]	MIC [8]	zone of inhibition at 25 µg/disc [9] [mm]	inhibition zone (IZ) [10]	inhibition zone (IZ) [11]	zone of inhibition at 25 µg/disc [12] [mm]	also measured
O=C(O)[C@@H]1CCCN1C(=O)/C=C/CCCCCCCCCC=C(Br)Br	10 µg/mL (≈ 20.9 µM)	10 µg/mL (≈ 20.9 µM)	8	8	12 µg/mL (≈ 25 µM)	9 µg/mL (≈ 18.8 µM)	–	–	–	–	zone of inhibition at 5 µg/disc [2]: 8 mm; zone of inhibition at 10 µg/disc [6]: 8 mm
O=C(O)CCCCCCCNC(=O)/C=C/CCC=C(Br)Br	–	–	–	8	–	–	8	–	–	–	–
O=C(O)CNC(=O)/C=C/CCC=C(Br)Br	–	–	–	–	–	–	–	inactive	inactive	–	–
O=C(O)[C@@H]1C[C@H](O)CN1C(=O)/C=C/CCCCCCCCCC=C(Br)Br	–	–	8	–	–	–	8	–	inactive	8	–
O=C(/C=C/CCCCCCCCCC=C(Br)Br)N[C@H](C(=O)O)c1ccccc1	25 µg/mL (≈ 48.5 µM)	17 µg/mL (≈ 33 µM)	–	8	22 µg/mL (≈ 42.7 µM)	21 µg/mL (≈ 40.8 µM)	8	–	–	8	zone of inhibition at 10 µg/disc [13]: 8 mm; zone of inhibition at 10 µg/disc [14]: 8 mm
CC(C)C[C@H](NC(=O)/C=C/CCCCCCCCCC=C(Br)Br)C(=O)O	6.4 µg/mL (≈ 12.9 µM)	2.3 µg/mL (≈ 4.64 µM)	–	8	3.7 µg/mL (≈ 7.47 µM)	2.9 µg/mL (≈ 5.86 µM)	8	–	–	–	zone of inhibition at 5 µg/disc [2]: 8 mm; zone of inhibition at 10 µg/disc [14]: 8 mm
O=C(O)/C=C/CCCCCCCCCC=C(Br)Br [MOTUALEVIC ACID E]	–	–	–	–	–	–	–	inactive	–	–	zone of inhibition at 50 µg/disc [11]: 8 mm
O=C(/C=C/CCCCCCCCCC=C(Br)Br)N[C@@H](Cc1ccccc1)C(=O)O	6.3 µg/mL (≈ 11.9 µM)	5 µg/mL (≈ 9.45 µM)	–	–	2.9 µg/mL (≈ 5.48 µM)	4.4 µg/mL (≈ 8.31 µM)	–	–	inactive	–	zone of inhibition at 5 µg/disc [2]: 8 mm; zone of inhibition at 50 µg/disc [10]: 8 mm; zone of inhibition at 5 µg/disc [15]: 8 mm
O=C(O)CN(CC(=O)O)C(=O)/C=C/CCCCCCCCCC=C(Br)Br	inactive	inactive	–	–	inactive	inactive	–	–	–	–	zone of inhibition at 50 µg/disc [10]: 8 mm; zone of inhibition at 50 µg/disc [11]: 8 mm; inhibition zone (IZ) [16]: inactive; inhibition zone (IZ) [17]: inactive
CN(C)C(=O)CNC(=O)/C=C/CCCCCCCCCC=C(Br)Br	–	–	–	–	–	–	–	inactive	inactive	–	–
NC(=O)CNC(=O)/C=C/CCCCCCCCCC=C(Br)Br	–	–	–	–	–	–	–	inactive	inactive	–	–
O=C(O)CNC(=O)/C=C/CCCCCCCC=C(Br)Br	–	–	–	–	–	–	–	–	–	–	zone of inhibition at 50 µg/disc [10]: 8 mm; zone of inhibition at 50 µg/disc [11]: 8 mm
CCC/C=C/C(=O)NCC(=O)O	–	–	–	–	–	–	–	inactive	inactive	–	–
C[N+](C)(C)CCNC(=O)/C=C/CCCCCCCCCC=C(Br)Br.[Cl-]	3.7 µg/mL	2.4 µg/mL	8	–	5.2 µg/mL	4.2 µg/mL	–	–	–	8	zone of inhibition at 10 µg/disc [18]: 8 mm; zone of inhibition at 10 µg/disc [6]: 8 mm
O=C(O)CCNC(=O)/C=C/CCCCCCCCCC=C(Br)Br	11 µg/mL (≈ 24.3 µM)	3.6 µg/mL (≈ 7.94 µM)	8	–	12 µg/mL (≈ 26.5 µM)	3.3 µg/mL (≈ 7.28 µM)	–	–	–	8	zone of inhibition at 10 µg/disc [18]: 8 mm; zone of inhibition at 10 µg/disc [13]: 8 mm; zone of inhibition at 10 µg/disc [6]: 8 mm
O=C(O)[C@H]1CCCN1C(=O)/C=C/CCCCCCCCCC=C(Br)Br	15 µg/mL (≈ 31.3 µM)	18 µg/mL (≈ 37.6 µM)	8	8	11 µg/mL (≈ 23 µM)	19 µg/mL (≈ 39.6 µM)	8	–	–	8	zone of inhibition at 10 µg/disc [13]: 8 mm
CCCCCCCCC/C=C/C(=O)NCC(=O)O	–	–	–	–	–	–	–	inactive	inactive	–	–
O=C(O)CCCNC(=O)/C=C/CCCCCCCCCC=C(Br)Br	11 µg/mL (≈ 23.5 µM)	2.5 µg/mL (≈ 5.35 µM)	–	8	8.5 µg/mL (≈ 18.2 µM)	2.4 µg/mL (≈ 5.14 µM)	8	–	–	8	zone of inhibition at 10 µg/disc [13]: 8 mm; zone of inhibition at 10 µg/disc [14]: 8 mm
O=C(O)C[C@H](NC(=O)/C=C/CCCCCCCCCC=C(Br)Br)C(=O)O	inactive	inactive	–	–	inactive	inactive	–	–	inactive	–	inhibition zone (IZ) [16]: inactive; inhibition zone (IZ) [17]: inactive
O=C(O)CNC(=O)/C=C/CCCCCCCCCC=C(Br)Br [MOTUALEVIC ACID A]	9.3 µg/mL (≈ 21.2 µM)	11 µg/mL (≈ 25 µM)	8	–	12 µg/mL (≈ 27.3 µM)	9.3 µg/mL (≈ 21.2 µM)	–	–	–	8	zone of inhibition at 10 µg/disc [18]: 8 mm; zone of inhibition at 10 µg/disc [13]: 8 mm; zone of inhibition at 10 µg/disc [6]: 8 mm
